Data reported in US5554542A, “Immunoassay for isothiazolones” (Rohm and Haas Company, priority 1993, dated 1996).

Experiments:
Assay type in all cases: binding, mouse
[1] = test system: antibodies in hybridoma culture supernatants (CF10, EH9, EC2, EC2 IB8); experiment: CIEIA of hybridoma culture supernatants; details: for Inhibition of antibody binding to coating antigen: cell culture 89-147EH9, coating antigen 651-BSA; for Inhibitors (Absorbance): coating 651-BSA
Protocol: (§1) The supernatants from wells with growing colonies of hybridomas were screened using CIEIA. Ninety-six well polystyrene EIA ([…]) plates were coated with 100 μl of 651 conjugated to BSA (651-BSA) for at least two hours at room temperature or 16 hours at 4° C. Unbound material was washed from the wells with five washes of PBS-T. The wells then received 50 μl of buffer alone (PBS-T) or inhibitors, either 651 or 573, each diluted to 2 ppm in buffer. The wells then received 50 μl of supernatant from each cell culture, so that each supernatant was reacted with either buffer, 651 or 573 (inhibitors). […] The wells were incubated for 30-60 minutes at room temperature. They were then washed five times with PBS-T to remove unbound material and each well then received 100 μl of a 1 μg/ml solution of biotinylated horse anti-mouse IgG (Vector Laboratories, Burlingame, Calif.), and the assay continued as described for the ELISA, supra.
If the antibodies in a supernatant were reactive with one or both of the inhibitors in solution in the wells, the antibody molecules, or a percentage of the antibody molecules, would bind to the inhibitors, and would therefore form an antibody-inhibitor complex which would stay in solution and be removed from the plate during the washing step. In such a case, the binding of the antibody to the inhibitor would reduce the number of antibody molecules available to bind to the coating antigen, 651-BSA. Because fewer antibody molecules are attached to the 651-BSA, there is a reduction in the number of biotinylated horse anti-mouse IgG molecules bound, resulting in fewer molecules of avidin-peroxidase complex being bound, resulting in reduced hydrolysis of the substrate, leading ultimately to lower absorbances.
It is possible to manipulate the CIEIA to achieve greater inhibition by varying the concentrations of coating antigen, antibodies and detection molecules (such as the horse anti-mouse IgG and the avidin-peroxidase complex). Such "optimization" of the CIEIA is used to obtain higher levels of sensitivity and allow the use of lower concentrations (i.e. higher dilutions) of the monoclonal antibodies.

[2] = test system: antibodies produced by cell culture 89-147EH9; experiment: CIEIA for detection of biocides, four inhibitors at several concentrations; details: for 10 Minute Absorbances × 1000: no inhibitor 515
Protocol: as §1, with “The wells then received 50 μl of buffer alone (PBS-T) or inhibitors, either 651 or 573, each diluted to 2 ppm in buffer.” left out

[3] = test system: antibodies of 89-147EH9 clones; experiment: CIEIA reactivity of 89-147EH9 clones with compounds 651 and 573
Protocol: as §1
In order to assure that the antibodies reactive with compound 651 were produced by cells of the identical genetic makeup, it was necessary to derive clones of cell culture 89--147EH9. Cloning was accomplished by first determining the total number of viable cells in a population of 89-147EH9 cells. The cell population was then diluted to a density of 4-5 cells per ml of cell culture medium. Two hundred μl of this cell suspension was then planted in each well of four 96 well cell culture dishes, designated I-IV. Fourteen days later, each well was checked by microscopic evaluation for growing colonies of cells. Those with only a single loci of cells were designated monoclonal.
Subsequently, each colony was tested for reactivity in the ELISA described previously. Of the colonies, several were selected for expansion and retesting by CIEIA for reactivity with both 651 and 573.

[4] = test system: antibodies in hybridoma culture supernatants (CF10, EH9, EC2, EC2 IB8); experiment: CIEIA of hybridoma culture supernatants; details: culture EH9, supernatant dilution 1:4, tested versus 0.4 ppm of inhibitor, coating 651-BSA; no inhibitor 0.515
[5] = culture CF10, supernatant dilution 1:2, inhibitor 1 PPM, no inhibitor 0.485
[6] = culture CF10, supernatant dilution 1:2.5, inhibitor 1 PPM, no inhibitor 0.121
[7] = culture EC2, supernatant dilution 1:2, inhibitor 1 PPM, no inhibitor 0.847
[8] = culture EC2, supernatant dilution 1:12, inhibitor 1 PPM, no inhibitor 0.917
[9] = culture EC2 IB8 (a clone of 89147EC2), supernatant dilution 1:6, inhibitor 1 PPM, no inhibitor 0.169
[10] = culture EH9, supernatant dilution 1:2, inhibitor 1 PPM, no inhibitor 0.170
[11] = culture EH9, supernatant dilution 1:2.5, inhibitor 1 PPM, no inhibitor 0.386
[12] = inhibitor concentration 0.08 ppm
[13] = inhibitor concentration 0.4 ppm
[14] = clone IA5, inhibitor 1 PPM, PBS 528
[15] = clone ID5, inhibitor 1 PPM, PBS 584
[16] = clone ID8, inhibitor 1 PPM, PBS 746
[17] = clone IID1, inhibitor 1 PPM, PBS 060
[18] = clone IIIH6, inhibitor 1 PPM, PBS 647
[19] = clone IVE1, inhibitor 1 PPM, PBS 818
[20] = clone IVE4, inhibitor 1 PPM, PBS 595
[21] = clone IVF12, inhibitor 1 PPM, PBS 090
[22] = clone IVH2, inhibitor 1 PPM, PBS 680

Cn1sccc1=O [compound 573, 2-methyl-3-isothiazolone]
Inhibition of antibody binding to coating antigen [1]: inhibitable | Inhibitors (Absorbance) [1, 5]: 0.479 | Inhibitors (Absorbance) [1, 6]: 0.099 | Inhibitors (Absorbance) [1, 7]: 0.520 | Inhibitors (Absorbance) [1, 8]: 0.872 | Inhibitors (Absorbance) [1, 9]: 0.121 | Inhibitors (Absorbance) [1, 10]: 0.117 | Inhibitors (Absorbance) [1, 11]: 0.135 | 10 Minute Absorbances × 1000 [2, 12]: 590 | 10 Minute Absorbances × 1000 [2, 13]: 461 | 10 Minute Absorbances × 1000 ([2]; inhibitor concentration 2 ppm): 504 | 10 Minute Absorbances × 1000 ([2]; inhibitor concentration 10 ppm): 344 | 10 Minute Absorbances × 1000 ([2]; inhibitor concentration 50 ppm): 191 | % I (percentage inhibition) ([3]; clone IA5, inhibitor 1 PPM): 10.8% | Absorbances × 1000 [3, 14]: 471 | % I (percentage inhibition) ([3]; clone ID5, inhibitor 1 PPM): 0.0% | Absorbances × 1000 [3, 15]: 671 | % I (percentage inhibition) ([3]; clone ID8, inhibitor 1 PPM): 0.0% | Absorbances × 1000 [3, 16]: 1068 | % I (percentage inhibition) ([3]; clone IID1, inhibitor 1 PPM): < 1.0% | Absorbances × 1000 [3, 17]: 057 | % I (percentage inhibition) ([3]; clone IIIH6, inhibitor 1 PPM): 0.0% | Absorbances × 1000 [3, 18]: 705 | % I (percentage inhibition) ([3]; clone IVE1, inhibitor 1 PPM): 34.1% | Absorbances × 1000 [3, 19]: 539 | % I (percentage inhibition) ([3]; clone IVE4, inhibitor 1 PPM): 9.4% | Absorbances × 1000 [3, 20]: 539 | % I (percentage inhibition) ([3]; clone IVF12, inhibitor 1 PPM): 18.9% | Absorbances × 1000 [3, 21]: 073 | % I (percentage inhibition) ([3]; clone IVH2, inhibitor 1 PPM): 7.0% | Absorbances × 1000 [3, 22]: 632 | Inhibitors (Absorbance) [4]: 0.504

Cn1sc(Cl)cc1=O [compound 651, 5-chloro-2-methyl-3-isothiazolone]
Inhibition of antibody binding to coating antigen [1]: inhibitable | Inhibitors (Absorbance) [1, 5]: 0.419 | Inhibitors (Absorbance) [1, 6]: 0.119 | Inhibitors (Absorbance) [1, 7]: 0.652 | Inhibitors (Absorbance) [1, 8]: 0.910 | Inhibitors (Absorbance) [1, 9]: 0.124 | Inhibitors (Absorbance) [1, 10]: 0.150 | Inhibitors (Absorbance) [1, 11]: 0.122 | Relative reactivity of the antibodies with the compounds tested ([2]; 89-147EH9 antibodies, 651 versus similar amounts of other biocides): more strongly reactive | 10 Minute Absorbances × 1000 ([2]; inhibitor concentration 0.016 ppm): 491 | 10 Minute Absorbances × 1000 [2, 12]: 448 | 10 Minute Absorbances × 1000 [2, 13]: 338 | 10 Minute Absorbances × 1000 ([2]; inhibitor concentration 2 ppm): 185 | 10 Minute Absorbances × 1000 ([2]; inhibitor concentration 10 ppm): 106 | % I (percentage inhibition) ([3]; clone IA5, inhibitor 1 PPM): 34.1% | Absorbances × 1000 [3, 14]: 348 | % I (percentage inhibition) ([3]; clone ID5, inhibitor 1 PPM): 26.5% | Absorbances × 1000 [3, 15]: 429 | % I (percentage inhibition) ([3]; clone ID8, inhibitor 1 PPM): 0.0% | Absorbances × 1000 [3, 16]: 807 | % I (percentage inhibition) ([3]; clone IID1, inhibitor 1 PPM): < 1.0% | Absorbances × 1000 [3, 17]: 055 | % I (percentage inhibition) ([3]; clone IIIH6, inhibitor 1 PPM): 27.2% | Absorbances × 1000 [3, 18]: 471 | % I (percentage inhibition) ([3]; clone IVE1, inhibitor 1 PPM): 44.7% | Absorbances × 1000 [3, 19]: 452 | % I (percentage inhibition) ([3]; clone IVE4, inhibitor 1 PPM): 39.3% | Absorbances × 1000 [3, 20]: 361 | % I (percentage inhibition) ([3]; clone IVF12, inhibitor 1 PPM): 27.8% | Absorbances × 1000 [3, 21]: 065 | % I (percentage inhibition) ([3]; clone IVH2, inhibitor 1 PPM): 46.2% | Absorbances × 1000 [3, 22]: 366 | Inhibitors (Absorbance) [4]: 0.186
